Test results published in US9199971B2, “Arylethynyl pyrimidines” (Hoffmann-La Roche Inc., priority 2012, dated 2015).
Values after ≈ are worked out from the molar mass of the structure shown.

What was measured:
[1] = Spontaneous Glutathione (GSH) Addition Assay; set-up: key: Samples for which the mass of a covalent adduct was clearly detected (M+307) are indicated as FLAG (positive); Compounds for which no adduct was detected are designated NO FLAG (negative); conditions: 10 μM test substance, 5 mM GSH, pH 7.4 phosphate buffer, 24 hours, room temperature; adduct by MS
Description: 10 μM of test substance dissolved in pH 7.4 phosphate buffer was incubated with 5 mM GSH (glutathione) for 24 hours at room temperature. The samples were then analyzed using a mass spectrometer to determine whether adducts between glutathione and the drug had been formed. Samples for which the mass of a covalent adduct was clearly detected (M+307) are indicated as FLAG (positive). Compounds for which no adduct was detected are designated NO FLAG (negative).

human mGlu5a receptor = target: T1, human mGlu5a receptor (Homo sapiens, UniProt P41594); assay: Intracellular Ca2+ mobilization assay (mGlu5 PAM); assay type: cell-based; conditions: HEK-293 cells expressing human mGlu5a; L-glutamate at EC20
T1 construct: expressed in transfected cells; host or cells: HEK-293 (monoclonal, stably transfected)
T1 sequence (P41594 21-1180 isoform P41594-2 limits assumed): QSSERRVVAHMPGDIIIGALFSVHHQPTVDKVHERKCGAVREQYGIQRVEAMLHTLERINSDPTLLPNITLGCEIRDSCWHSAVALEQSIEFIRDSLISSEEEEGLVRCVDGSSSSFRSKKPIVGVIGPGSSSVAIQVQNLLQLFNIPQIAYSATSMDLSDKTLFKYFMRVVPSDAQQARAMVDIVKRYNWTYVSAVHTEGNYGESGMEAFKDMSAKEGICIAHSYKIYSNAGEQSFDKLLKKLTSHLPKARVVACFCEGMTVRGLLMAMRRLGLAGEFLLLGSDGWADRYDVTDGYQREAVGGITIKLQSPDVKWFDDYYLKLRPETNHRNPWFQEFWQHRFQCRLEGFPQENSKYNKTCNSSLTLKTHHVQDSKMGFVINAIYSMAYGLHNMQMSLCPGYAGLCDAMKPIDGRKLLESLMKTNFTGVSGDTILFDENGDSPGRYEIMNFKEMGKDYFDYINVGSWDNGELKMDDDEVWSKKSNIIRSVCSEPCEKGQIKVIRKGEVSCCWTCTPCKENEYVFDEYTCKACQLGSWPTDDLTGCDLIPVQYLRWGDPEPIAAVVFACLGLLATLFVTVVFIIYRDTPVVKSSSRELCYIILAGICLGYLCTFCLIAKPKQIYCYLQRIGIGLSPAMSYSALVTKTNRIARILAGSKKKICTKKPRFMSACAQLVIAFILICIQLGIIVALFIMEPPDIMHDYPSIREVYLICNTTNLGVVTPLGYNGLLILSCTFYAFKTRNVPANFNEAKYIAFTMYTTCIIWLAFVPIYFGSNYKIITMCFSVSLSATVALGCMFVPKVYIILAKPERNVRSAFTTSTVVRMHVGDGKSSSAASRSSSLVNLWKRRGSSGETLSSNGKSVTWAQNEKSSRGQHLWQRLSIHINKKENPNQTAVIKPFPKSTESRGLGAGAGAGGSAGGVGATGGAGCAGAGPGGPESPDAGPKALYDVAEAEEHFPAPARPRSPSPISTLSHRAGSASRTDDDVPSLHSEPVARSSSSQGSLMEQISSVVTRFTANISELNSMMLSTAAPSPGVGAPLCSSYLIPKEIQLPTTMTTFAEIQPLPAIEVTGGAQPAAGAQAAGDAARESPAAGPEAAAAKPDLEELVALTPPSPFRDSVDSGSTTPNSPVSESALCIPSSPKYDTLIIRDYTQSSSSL
Description: A monoclonal HEK-293 cell line stably transfected with a cDNA encoding for the human mGlu5a receptor was generated; for the work with mGlu5 Positive Allosteric Modulators (PAMs), a cell line with low receptor expression levels and low constitutive receptor activity was selected to allow the differentiation of agonistic versus PAM activity. Cells were cultured according to standard protocols (Freshney, 2000) in Dulbecco's Modified Eagle Medium with high glucose supplemented with 1 mM glutamine, 10% (vol/vol) heat-inactivated bovine calf serum, Penicillin/Streptomycin, 50 μg/ml hygromycin and 15 μg/ml blasticidin (all cell culture reagents and antibiotics from Invitrogen, Basel, Switzerland).
About 24 hrs before an experiment, 5×10^4 cells/well were seeded in poly-D-lysine coated, black/clear-bottomed 96-well plates. The cells were loaded with 2.5 μM Fluo-4AM in loading buffer (1×HBSS, 20 mM HEPES) for 1 hr at 37° C. and washed five times with loading buffer. The cells were transferred into a Functional Drug Screening System 7000 (Hamamatsu, Paris, France), and 11 half logarithmic serial dilutions of test compound at 37° C. were added and the cells were incubated for 10-30 min. with on-line recording of fluorescence. Following this pre-incubation step, the agonist L-glutamate was added to the cells at a concentration corresponding to EC20 (typically around 80 μM) with on-line recording of fluorescence; in order to account for day-to-day variations in the responsiveness of cells, the EC20 of glutamate was determined immediately ahead of each experiment by recording of a full dose-response curve of glutamate.
Responses were measured as peak increase in fluorescence minus basal (i.e. fluorescence without addition of L-glutamate), normalized to the maximal stimulatory effect obtained with saturating concentrations of L-glutamate. Graphs were plotted with the % maximal stimulatory using XLfit, a curve fitting program that iteratively plots the data using Levenburg Marquardt algorithm. The single site competition analysis equation used was y=A+((B−A)/(1+((x/C)D))), where y is the % maximal stimulatory effect, A is the minimum y, B is the maximum y, C is the EC50, x is the log 10 of the concentration of the competing compound and D is the slope of the curve (the Hill Coefficient). From these curves the EC50 (concentration at which half maximal stimulation was achieved), the Hill coefficient as well as the maximal response in % of the maximal stimulatory effect obtained with saturating concentrations of L-glutamate were calculated.
A depression of the signal observed after addition of the EC20 concentration of L-glutamate was indicative of an inhibitory activity of the test compound.

[2] = Lyophilisation Solubility Assay (LYSA); assay type: physicochemical; conditions: aqueous buffer, thermodynamic from solid, 0.05 M phosphate buffer pH 6.5
Description: The procedure of this automatic high throughput assay can be separated into two steps. First, DMSO stock solutions of test compounds are diluted in order to prepare four point calibration curves. The peak area at an optimal wavelength for each test compound is determined automatically by Ultra Fast Liquid Chromatography. The extraction of peak areas and retention times from the raw data is performed automatically. Using four concentrations and the related peak areas, slope and intercept of the calibration line is calculated. The correlation coefficient of the obtained regression line should be greater than 0.99. In the second phase, the sample solutions are prepared in duplicate from the DMSO stock solutions. The DMSO was removed using an evaporator. After evaporation of the DMSO, the solid drugs were solved in 0.05 M phosphate buffer (pH 6.5), stirred for one hour and afterwards shaken for two hours. After standing overnight (about 20 hours), the solutions are filtered using a microtiter filter plate. The filtrate and its 1/10 dilutions are then analyzed automatically by High Performance Liquid Chromatography (HPLC). The peak areas and retention times of the samples were extracted at the same wavelength used for the calibration.
The solubility is calculated using the following equation: S=(A−b)/a(×10 for the sample diluted 1/10)
Where S is the solubility in μg/mL; A is the peak area of the sample; a is the slope and b is the intercept of the calibration curve.

[3] = Solubility by 24 h equilibration in phosphate buffer, manual conventional HPLC (reference compound 106); assay type: physicochemical; conditions: aqueous buffer, thermodynamic from solid, equilibrated 24 h in 0.05 M phosphate buffer pH 6.5
Description: In the case of reference compound 106, the compound was equilibrated for 24 h in 0.05 M phosphate buffer (pH 6.5) using a procedure identical to that performed with the LYSA assay. The amount of solute present was then directly determined using manual conventional HPLC analytics.

GSH assay [1]	EC50 (human mGlu5a receptor) [nM]	solubility [2] [µg/mL]	SMILES	solubility at 24 h [3] [µg/mL]
FLAG	11.9	< 1	CN1C(=O)N(c2ccc(C#Cc3cccc(F)c3)nn2)[C@@H]2CCC[C@@H]21 (racemic) [Ref. 1 Ex. 174, reference compound]	
NO FLAG	9.1	8 (≈ 24.1 µM)	CCN1C(=O)N(c2ncc(C#Cc3ccccc3)cn2)[C@@H]2CCC[C@@H]21 [Example 1, (−)-(3aR,6aS)-1-Ethyl-3-(5-phenylethynyl-pyrimidin-2-yl)-hexahydro-cyclopentaimidazol-2-one]	
NO FLAG	10.6	7 (≈ 20 µM)	CCN1C(=O)N(c2ncc(C#Cc3cccc(F)c3)cn2)[C@@H]2CCC[C@@H]21 [Example 2]	
NO FLAG	11.5	4 (≈ 11.4 µM)	CCN1C(=O)N(c2ncc(C#Cc3ccc(F)cc3)cn2)[C@@H]2CCC[C@@H]21 [Example 3]	
NO FLAG	10	16 (≈ 43.4 µM)	CCN1C(=O)N(c2ncc(C#Cc3cc(F)ccc3F)cn2)[C@@H]2CCC[C@@H]21 [Example 4]	
NO FLAG	12.5	171 (≈ 472 µM)	COCCN1C(=O)N(c2ncc(C#Cc3ccccc3)cn2)[C@@H]2CCC[C@@H]21 [Example 5, (−)-(3aR,6aS)-1-(2-Methoxy-ethyl)-3-(5-phenylethynyl-pyrimidin-2-yl)-hexahydro-cyclopentaimidazol-2-one]	
NO FLAG	24.5	114 (≈ 300 µM)	COCCN1C(=O)N(c2ncc(C#Cc3cccc(F)c3)cn2)[C@@H]2CCC[C@@H]21 [Example 6]	
NO FLAG	26.8	43 (≈ 113 µM)	COCCN1C(=O)N(c2ncc(C#Cc3ccc(F)cc3)cn2)[C@@H]2CCC[C@@H]21 [Example 7]	
NO FLAG	15.7	75 (≈ 188 µM)	COCCN1C(=O)N(c2ncc(C#Cc3cc(F)ccc3F)cn2)[C@@H]2CCC[C@@H]21 [Example 8]	
NO FLAG	30.9	153 (≈ 406 µM)	COCCCN1C(=O)N(c2ncc(C#Cc3ccccc3)cn2)[C@@H]2CCC[C@@H]21 [Example 9, (−)-(3aR,6aS)-1-(3-Methoxy-propyl)-3-(5-phenylethynyl-pyrimidin-2-yl)-hexahydro-cyclopentaimidazol-2-one]	
NO FLAG	31.6	115 (≈ 292 µM)	COCCCN1C(=O)N(c2ncc(C#Cc3cccc(F)c3)cn2)[C@@H]2CCC[C@@H]21 [Example 10]	
NO FLAG	35	56 (≈ 142 µM)	COCCCN1C(=O)N(c2ncc(C#Cc3ccc(F)cc3)cn2)[C@@H]2CCC[C@@H]21 [Example 11]	
FLAG	8.1	2 (≈ 6.28 µM)	CN1C(=O)N(c2ccc(C#Cc3ccccc3)nn2)[C@@H]2CCC[C@@H]21 [Ref. 1 Ex. 170, reference compound]	

SMILES	GSH assay [1]	EC50 (human mGlu5a receptor) [nM]	solubility [2] [µg/mL]	solubility at 24 h [3] [µg/mL]
CN1C(=O)N(c2ccc(C#Cc3ccccc3)cn2)[C@@H]2CCC[C@@H]21 [Ref. 1 Ex. 106, reference compound]		8		0.011 (≈ 0.0347 µM)
